# Test results from PubChem BioAssay AID328 (DTP/NCI, 2004).
# Values joined by “and” are separate entries in the source; they are usually repeats but may differ in a detail not shown here. Identical values can stand only once. Inconclusive results and toxic doses are left out. Residues, ends and D or L forms follow the SMILES beside them. *: point of attachment. Trt = c1ccc(C(c2ccccc2)(c2ccccc2)*)cc1
# Tested on: BDF1 mice, P388 leukemia ip, median survival T/C
# Assay: NCI In Vivo Anticancer Drug Screen. Data for tumor model P388 Leukemia (intraperitoneal) in B6D2F1 (BDF1) mice
# Conditions: endpoint: median survival time, higher = longer survival
# Outline: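 Vehicle-dosed animals serve as the reference; survival of compound-dosed, tumour-implanted mice is divided by it.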
# [1] = dose: 400.0 mg/kg/injection, schedule: Q04DX003 (ip), vehicle: other
# [2] = dose: 100.0 mg/kg/injection, schedule: Q04DX003 (ip), vehicle: Klucel (hydroxypropylcellulose) (HPC)
# [3] = dose: 200.0 mg/kg/injection, schedule: Q04DX003 (ip), vehicle: Klucel (hydroxypropylcellulose) (HPC)
# [4] = dose: 400.0 mg/kg/injection, schedule: Q04DX003 (ip), vehicle: Klucel (hydroxypropylcellulose) (HPC)
# [5] = dose: 100.0 mg/kg/injection, schedule: Q01DX009 (ip), vehicle: Klucel (hydroxypropylcellulose) (HPC)
# [6] = dose: 200.0 mg/kg/injection, schedule: Q01DX009 (ip), vehicle: Klucel (hydroxypropylcellulose) (HPC)
# [7] = dose: 400.0 mg/kg/injection, schedule: Q01DX009 (ip), vehicle: Klucel (hydroxypropylcellulose) (HPC)
# [8] = dose: 100.0 mg/kg/injection, schedule: Q04DX003 (ip), vehicle: saline with Tween-80
# [9] = dose: 200.0 mg/kg/injection, schedule: Q04DX003 (ip), vehicle: saline with Tween-80
# [10] = dose: 400.0 mg/kg/injection, schedule: Q04DX003 (ip), vehicle: saline with Tween-80
# [11] = dose: 100.0 mg/kg/injection, schedule: Q04DX003 (ip), vehicle: saline
# [12] = dose: 100.0 mg/kg/injection, schedule: Q01DX009 (ip), vehicle: saline with Tween-80
# [13] = dose: 50.0 mg/kg/injection, schedule: Q01DX009 (ip), vehicle: saline
smiles,measurement,setting,value
COC(=O)C(NC(=O)C(N)CSC(c1ccccc1)(c1ccccc1)c1ccccc1)C(C)C (stereo not given) (H-Cys(Trt)-Val-OMe; configuration not given here),T/C,"dose: 50.0 mg/kg/injection, schedule: Q01DX009 (sc), vehicle: olive oil, sesame oil, peanut oil",117 % of control
same,T/C,"dose: 50.0 mg/kg/injection, schedule: Q04DX003 (sc), vehicle: olive oil, sesame oil, peanut oil",90 % of control
same,T/C,"dose: 100.0 mg/kg/injection, schedule: Q01DX009 (sc), vehicle: olive oil, sesame oil, peanut oil",104 % of control
same,T/C,"dose: 100.0 mg/kg/injection, schedule: Q04DX003 (sc), vehicle: olive oil, sesame oil, peanut oil",90 % of control
same,T/C,"dose: 200.0 mg/kg/injection, schedule: Q01DX009 (sc), vehicle: olive oil, sesame oil, peanut oil",104 % of control
same,T/C,"dose: 200.0 mg/kg/injection, schedule: Q04DX003 (sc), vehicle: olive oil, sesame oil, peanut oil",100 % of control
N#CC1c2ccccc2C=NN1C(=O)N(c1ccccc1)c1ccccc1 (stereo not given),T/C,"dose: 100.0 mg/kg/injection, schedule: Q04DX003 (ip), vehicle: other",90 % of control
same,T/C,"dose: 200.0 mg/kg/injection, schedule: Q04DX003 (ip), vehicle: other",100 % of control
same,T/C,[1],100 % of control
C=CC(COC(=O)C(C)(C)OC(C)=O)c1ccc(OC(=O)C(C)C)c(OC)c1 (stereo not given),T/C,"dose: 1.56 mg/kg/injection, schedule: Q01DX009 (ip), vehicle: saline",119 % of control
same,T/C,"dose: 3.13 mg/kg/injection, schedule: Q01DX009 (ip), vehicle: saline",100 % of control
same,T/C,"dose: 6.25 mg/kg/injection, schedule: Q01DX009 (ip), vehicle: saline",103 % of control
same,T/C,"dose: 12.5 mg/kg/injection, schedule: Q01DX009 (ip), vehicle: saline",100 % of control
CCOC(=O)c1[nH]c2c(c1CC(CC)[N+](=O)[O-])CCCC2 (stereo not given),T/C,[2],95 % of control
same,T/C,[3],100 % of control
same,T/C,[4],91 % of control
CCCN1CSC(=S)N(CCC)C1,T/C,"dose: 50.0 mg/kg/injection, schedule: Q01DX009 (ip), vehicle: Klucel (hydroxypropylcellulose) (HPC)",100 % of control
same,T/C,[5],170 % of control
COC1=C(OC)C(=O)C2=C(OCCO2)C1=O,T/C,"dose: 100.0 mg/kg/injection, schedule: Q01DX001 (ip), vehicle: saline with Tween-80",104 % of control
COC(=O)C(Br)C(OC)c1ccccc1 (stereo not given),T/C,[5],91 % of control
same,T/C,[6],95 % of control
same,T/C,[7],95 % of control
COc1ccccc1/C=N/NC(=O)c1ccccc1,T/C,[8],100 % of control
same,T/C,[9],104 % of control
same,T/C,[10],104 % of control
c1ccc2c(c1)C1CCC2c2ccccc21,T/C,"dose: 50.0 mg/kg/injection, schedule: Q04DX003 (ip), vehicle: saline with Tween-80",100 % of control
same,T/C,[8],100 % of control
same,T/C,[9],88 % of control and 100 % of control
same,T/C,[10],100 % of control
O=[N+]([O-])c1ccccc1N=P(c1ccccc1)(c1ccccc1)c1ccccc1,T/C,"dose: 50.0 mg/kg/injection, schedule: Q01DX009 (ip), vehicle: DMSO",109 % of control
same,T/C,"dose: 50.0 mg/kg/injection, schedule: Q04DX003 (ip), vehicle: DMSO",100 % of control
same,T/C,"dose: 100.0 mg/kg/injection, schedule: Q01DX009 (ip), vehicle: DMSO",104 % of control
same,T/C,"dose: 100.0 mg/kg/injection, schedule: Q04DX003 (ip), vehicle: DMSO",104 % of control
same,T/C,"dose: 200.0 mg/kg/injection, schedule: Q04DX003 (ip), vehicle: DMSO",90 % of control
NCCCCS(=O)(=O)Nc1ccc(Nc2c3ccccc3nc3cc([N+](=O)[O-])ccc23)cc1,T/C,"dose: 2.93 mg/kg/injection, schedule: Q04DX003 (ip), vehicle: saline",122 % of control
same,T/C,"dose: 33.0 mg/kg/injection, schedule: Q04DX003 (ip), vehicle: saline",154 % of control
same,T/C,"dose: 50.0 mg/kg/injection, schedule: Q04DX003 (ip), vehicle: saline",154 % of control
same,T/C,"dose: 75.0 mg/kg/injection, schedule: Q04DX003 (ip), vehicle: saline",172 % of control
same,T/C,[11],161 % of control
same,T/C,"dose: 200.0 mg/kg/injection, schedule: Q04DX003 (ip), vehicle: saline",161 % of control
O=C1C=CC(=O)c2cc(Cl)c(Cl)cc21,T/C,"dose: 3.13 mg/kg/injection, schedule: Q01DX009 (ip), vehicle: saline with Tween-80",118 % of control
same,T/C,"dose: 12.5 mg/kg/injection, schedule: Q01DX009 (ip), vehicle: saline with Tween-80",86 % of control
FC(F)(Cl)c1nc2nc(Cl)c(Cl)nc2[nH]1,T/C,"dose: 266.0 mg/kg/injection, schedule: Q04DX003 (ip), vehicle: other",100 % of control
same,T/C,[1],108 % of control
same,T/C,"dose: 600.0 mg/kg/injection, schedule: Q04DX003 (ip), vehicle: other",108 % of control
Cc1ccc(S(=O)(=O)Nc2ccccc2)c(CC(O)(c2ccccc2)c2ccccc2)c1,T/C,"dose: 50.0 mg/kg/injection, schedule: Q01DX009 (ip), vehicle: saline with Tween-80",90 % of control
same,T/C,[12],95 % of control
CN(C)c1ccc(/C=C/c2ccnc3ccccc23)cc1,T/C,"dose: 5.0 mg/kg/injection, schedule: Q01DX010 (ip), vehicle: saline",95 % of control and 100 % of control
same,T/C,"dose: 9.0 mg/kg/injection, schedule: Q01DX010 (ip), vehicle: saline",100 % of control
same,T/C,"dose: 10.0 mg/kg/injection, schedule: Q01DX010 (ip), vehicle: saline",95 % of control and 100 % of control
same,T/C,"dose: 18.0 mg/kg/injection, schedule: Q01DX010 (ip), vehicle: saline",109 % of control
same,T/C,"dose: 20.0 mg/kg/injection, schedule: Q01DX010 (ip), vehicle: saline",90 % of control and 100 % of control
same,T/C,"dose: 35.0 mg/kg/injection, schedule: Q01DX010 (ip), vehicle: saline",109 % of control
same,T/C,"dose: 40.0 mg/kg/injection, schedule: Q01DX010 (ip), vehicle: saline",100 % of control
COc1ccc(/C=C/C2(O)N(C)C(=O)N(C)C(=O)N2C)cc1,T/C,[13],89 % of control
same,T/C,"dose: 100.0 mg/kg/injection, schedule: Q01DX009 (ip), vehicle: saline",99 % of control
same,T/C,"dose: 200.0 mg/kg/injection, schedule: Q01DX009 (ip), vehicle: saline",118 % of control
[OH-].[OH-].[Pd+2].c1ccc(CSc2ncnc3nc[nH]c23)cc1.c1ccc(CSc2ncnc3nc[nH]c23)cc1.c1ccc(CSc2ncnc3nc[nH]c23)cc1.c1ccc(CSc2ncnc3nc[nH]c23)cc1,T/C,[12],90 % of control
same,T/C,[8],90 % of control
same,T/C,"dose: 200.0 mg/kg/injection, schedule: Q01DX009 (ip), vehicle: saline with Tween-80",90 % of control
same,T/C,[9],90 % of control
same,T/C,"dose: 400.0 mg/kg/injection, schedule: Q01DX009 (ip), vehicle: saline with Tween-80",90 % of control
CC1CN1P(=O)(N1CC=CCC1)N1CC1C (stereo not given),T/C,"dose: 9.38 mg/kg/injection, schedule: Q01DX009 (ip), vehicle: saline",112 % of control
same,T/C,"dose: 18.7 mg/kg/injection, schedule: Q01DX009 (ip), vehicle: saline",116 % of control
same,T/C,[13],162 % of control
same,T/C,"dose: 75.0 mg/kg/injection, schedule: Q01DX009 (ip), vehicle: saline",91 % of control
same,T/C,[11],107 % of control
CCCCC(/C=C1/CCCCC1=O)CC (stereo not given),T/C,[5],95 % of control
same,T/C,[2],104 % of control
same,T/C,[6],87 % of control
same,T/C,[3],104 % of control
same,T/C,[7],91 % of control
same,T/C,[4],113 % of control
CC1CCC[N-]C1.CC1CCC[N-]C1.CC1CCC[N-]C1.CC1CCC[N-]C1.[Cl][Rh][Cl] (stereo not given),T/C,"dose: 3.0 mg/kg/injection, schedule: Q01DX009 (ip), vehicle: Klucel (hydroxypropylcellulose) (HPC)",162 % of control
O=C(c1ccccc1)c1c2ccccc2c(-c2ccccc2)c2ccccc12,T/C,[5],100 % of control
same,T/C,[2],91 % of control
same,T/C,[6],100 % of control
same,T/C,[3],87 % of control
same,T/C,[7],111 % of control
same,T/C,[4],95 % of control
O=Cc1[nH]c(=S)[nH]c(=O)c1Cc1cccc(Cl)c1,T/C,[12],115 % of control
same,T/C,[8],113 % of control
same,T/C,[9],118 % of control
same,T/C,[10],113 % of control
CCOC(=O)C(c1cccc(OC)c1)C1(C(=O)OCC)CC2(CCC1=O)OCCO2 (stereo not given),T/C,"dose: 50.0 mg/kg/injection, schedule: Q01DX001 (ip), vehicle: saline sonified",104 % of control
same,T/C,"dose: 100.0 mg/kg/injection, schedule: Q01DX001 (ip), vehicle: saline sonified",100 % of control
same,T/C,"dose: 200.0 mg/kg/injection, schedule: Q01DX001 (ip), vehicle: saline sonified",100 % of control
OC(Cc1ccccc1)(c1ccccc1)c1cccc2ccccc12 (stereo not given),T/C,[5],100 % of control
same,T/C,[6],100 % of control
same,T/C,[7],104 % of control
